In patent US11241440B2, “Dihydrooxadiazine compounds for treating infections and cancer” (VALORALIA I MÁS D, SL, priority 2016, dated 2022):

How the values were obtained:
A. flavus = A. flavus AF-001; cited from earlier work; note: key: I = intermediate activity; S = susceptibility; R = Resistance
S. prolificans = S. prolificans SP-003; cited from earlier work; note: key: I = intermediate activity; S = susceptibility; R = Resistance
Aspergillus fumigatus = test: EUCAST broth dilution antifungal susceptibility test (MIC); type: cell-based; conditions: 100% inhibition, 24 hours at 35° C., dilution range 64 to 0.12 mg/l
Description: (§1) Filamentous fungi and yeasts strains, from clinical origin, were supplied by Microbiology Service from The Princess Hospital, Madrid. They are detailed in Table III. Filamentous fungi and yeast cells suspensions in distilled water was prepared from a culture of 24-48 h, depending on species, in Sabouraud agar. Each suspension was adjusted to a fixed size inoculum of 1-5×10^8 CFU/ml with a spectrophotometer (Ferraro, M J National Committee for Clinical Laboratory Standards. 2000). Antifungal susceptibility tests were developed following the standardized methodology detailed by the European Committee on Antimicrobial Susceptibility Testing (EUCAST) documents 7.2 (method for the determination of broth dilution minimum inhibitory concentrations of antifungal agents for yeasts EDef 7.2) and 9.2 (Method for the determination of broth dilution minimum inhibitory concentrations of antifungal agents for conidia forming foulds). The compound was dissolved in DMSO and diluted with RPMI plates with 2% glucose to pH 7 with MOPS buffer. […] Plates were inoculated with a yeast suspension or filamentous fungal spores (1-5×10^5 cls/ml). The results were evaluated after 24 hours incubation at 35° C. and absorbance reading at 530 nm.

Aspergillus flavus = test: as above; type: cell-based; conditions: 100% inhibition, 24 hours at 35° C., dilution range 64 to 0.12 mg/l
Description: as §1

Aspergillus terreus = test: as above; type: cell-based; conditions: 100% inhibition, 24 hours at 35° C., dilution range 64 to 0.12 mg/l
Description: as §1

Scedosporium prolificans = test: as above; type: cell-based; conditions: 100% inhibition, 24 hours at 35° C., dilution range 64 to 0.12 mg/l
Description: as §1

A. fumigatus = A. fumigatus AFu-001; cited from earlier work; note: key: I = intermediate activity; S = susceptibility; R = Resistance
C. parapsilosis = C. parapsilosis CP-007; cited from earlier work; note: key: I = intermediate activity; S = susceptibility; R = Resistance
A. terreus = A. terreus ATe-001; cited from earlier work; note: key: I = intermediate activity; S = susceptibility; R = Resistance
[1] = test system: equine herpes virus type 1 (EHV-1); test: Viral titer reduction; type: cell-based; conditions: 10 μg/ml

Row | MIC (minimum inhibitory concentration) (Aspergillus fumigatus) | MIC (minimum inhibitory concentration) (Aspergillus flavus) | MIC (minimum inhibitory concentration) (Aspergillus terreus) | MIC (minimum inhibitory concentration) (Scedosporium prolificans) | Compound | Characteristics of the strains: susceptibility class (A. flavus) | Characteristics of the strains: susceptibility class (S. prolificans) | Characteristics of the strains: susceptibility class (A. fumigatus) | Characteristics of the strains: susceptibility class (C. parapsilosis) | Characteristics of the strains: susceptibility class (A. terreus) | reduction of the titer (inhibition) [1]
1 | 0.5 | 1 | 2 | >16 | C[C@@H]1[C@H](O)[C@@H](C)/C=C/C=C/C=C/C=C/C=C/C=C/C=C/[C@H](O[C@@H]2O[C@H](C)[C@@H](O)[C@H](N)[C@@H]2O)C[C@@H]2O[C@](O)(C[C@@H](O)C[C@@H](O)[C@H](O)CC[C@@H](O)C[C@@H](O)CC(=O)O[C@H]1C)C[C@H](O)[C@H]2C(=O)O [Amphotericin B] | I | R | S | I | I | 
2 |  |  |  |  | Nc1nc(O)c2ncn(COC(CO)CO)c2n1 [GCV, ganciclovir] |  |  |  |  |  | 1.8 logarithms
3 | 0.5 | 1 | 0.5 | >8 | C[C@@H](c1ncncc1F)[C@](O)(Cn1cncn1)c1ccc(F)cc1F [Voriconazole] |  | R |  |  |  | 
